Data reported in patent US20230212121A1 (DAEGU-GYEONGBUK MEDICAL INNOVATION FOUNDATION, priority 2020, published 2023).
Where two headings read alike, the source gives them in different places.

Legend:
Type in all cases: cell-based
[1] = biological target: T1, serotonin transporter (SERT) (Homo sapiens, UniProt P31645); experiment: Serotonin reuptake inhibition, [3H]-5-HT, HEK-293 cells transfected with 5-HT transporter cDNA; settings: for IC50: concentration at which Ratio % is 50%, 6 concentrations 1 nM to 1 μM, read-out: Triple reuptake inhibition (IC50, μM) SERT
T1 construct: expressed in transfected cells; host or cells: HEK-293
T1 sequence (P31645 whole entry, species assumed): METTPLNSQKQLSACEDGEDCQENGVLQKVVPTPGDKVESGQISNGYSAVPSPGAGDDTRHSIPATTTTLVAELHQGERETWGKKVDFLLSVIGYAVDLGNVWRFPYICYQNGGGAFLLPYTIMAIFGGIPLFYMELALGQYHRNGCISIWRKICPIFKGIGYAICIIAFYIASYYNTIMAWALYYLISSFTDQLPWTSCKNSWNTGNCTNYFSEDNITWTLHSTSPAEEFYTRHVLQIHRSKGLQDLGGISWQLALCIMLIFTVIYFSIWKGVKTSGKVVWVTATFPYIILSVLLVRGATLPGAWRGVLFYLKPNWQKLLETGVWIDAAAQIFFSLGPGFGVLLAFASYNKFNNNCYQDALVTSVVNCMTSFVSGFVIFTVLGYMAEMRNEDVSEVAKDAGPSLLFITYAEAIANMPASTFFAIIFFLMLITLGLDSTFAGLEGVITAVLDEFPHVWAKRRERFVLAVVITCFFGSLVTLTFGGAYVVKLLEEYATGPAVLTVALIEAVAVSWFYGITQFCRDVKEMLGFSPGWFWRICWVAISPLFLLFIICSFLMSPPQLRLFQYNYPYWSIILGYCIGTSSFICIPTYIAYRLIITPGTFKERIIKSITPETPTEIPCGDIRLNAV
Method: (§1) In order to evaluate the reuptake inhibitory effect of the compounds of the Examples according to the present invention on serotonin, norepinephrine and dopamine, the experiments below were performed, and the results are shown in Table 17.
(§2) To evaluate the reuptake inhibition effect on dopamine, the dopamine transporter cDNA was transfected using the HEK-293 cell line, and then sub-seeded in a 24 well plate the next day. After removing the medium, each compound of the Examples or Comparative Examples diluted to 1 μM in uptake buffer was added to a concentration of 200 μl/well and cultured at 37° C. for 15 minutes. 100 μl of uptake buffer containing 20-30 nM [3H]-DA was added and cultured at 37° C. for 5 minutes. The reaction solution was quickly removed and washed three times with 1 ml ice-cold uptake buffer. After dissolving the resultant in 1% SDS (0.5 ml), the degree of binding of radioisotope-labeled dopamine to the transporter was measured.
(§3) For norepinephrine (NE) and serotonin (5-HT), the degree of binding of radioisotope-labeled norepinephrine or serotonin to the transporter was measured in the same manner as above, except that cells transfected with NE or 5-HT transporter cDNA were used and [3H]—NE or [3H]-5-HT was used as a substrate.
(§4) In addition, when evaluating the reuptake inhibitory effect on dopamine, norepinephrine, and serotonin, the same method was performed without treating each compound of the Examples or Comparative Examples as a control, the degree of binding of radioisotope-labeled dopamine, norepinephrine, and serotonin to the transporter was measured, and by using this as a reference (100%), the triple reuptake inhibitory effect was evaluated as a relative ratio (Ratio %). That is, in the control group, the binding of dopamine, norepinephrine, and serotonin to transporters is not inhibited, but when each compound of the Examples is treated and thus the binding is inhibited, the Ratio % value decreases.
(§5) Meanwhile, the Ratio % values were compared, and in the case of the compounds of Examples 6, 10, 13, 14, 17, 20, 21, 22, 30, 31, 32, 34, 36, 38, 39, 40, 54, 55, 56, 57, 58 and 73 with excellent reuptake inhibitory effects on dopamine, norepinephrine and serotonin, the concentration at which the Ratio % is 50% was calculated using a total of 6 concentrations (1 nM, 5 nM, 10 nM, 50 nM, 100 nM, and 1 μM) and expressed as IC50.

[2] = biological target: T2, norepinephrine transporter (NET) (Homo sapiens, UniProt P23975); experiment: Norepinephrine reuptake inhibition, [3H]-NE, HEK-293 cells transfected with NE transporter cDNA; settings: for Triple reuptake inhibition (Ratio %) NET: compound 1 μM, [3H]-NE, relative to control without compound = 100%, lower value = more inhibition; for IC50: concentration at which Ratio % is 50%, 6 concentrations 1 nM to 1 μM, read-out: Triple reuptake inhibition (IC50, μM) NET
T2 construct: expressed in transfected cells; host or cells: HEK-293
T2 sequence (P23975 whole entry, species assumed): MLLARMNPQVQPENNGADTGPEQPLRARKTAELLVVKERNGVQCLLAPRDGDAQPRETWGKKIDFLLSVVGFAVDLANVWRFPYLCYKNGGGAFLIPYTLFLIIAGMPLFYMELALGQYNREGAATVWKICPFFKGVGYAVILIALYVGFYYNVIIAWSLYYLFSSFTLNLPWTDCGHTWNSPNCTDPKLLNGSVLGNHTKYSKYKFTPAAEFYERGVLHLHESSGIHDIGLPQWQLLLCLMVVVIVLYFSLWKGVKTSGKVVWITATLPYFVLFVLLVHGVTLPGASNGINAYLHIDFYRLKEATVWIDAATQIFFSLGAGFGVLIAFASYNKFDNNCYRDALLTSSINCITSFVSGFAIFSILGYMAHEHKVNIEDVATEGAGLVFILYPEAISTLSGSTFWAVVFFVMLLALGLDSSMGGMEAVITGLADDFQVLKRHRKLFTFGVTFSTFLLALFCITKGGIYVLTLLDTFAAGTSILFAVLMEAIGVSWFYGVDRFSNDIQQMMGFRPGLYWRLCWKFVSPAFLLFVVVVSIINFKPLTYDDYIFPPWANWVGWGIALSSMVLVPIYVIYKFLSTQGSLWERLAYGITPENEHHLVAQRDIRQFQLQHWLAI
Method: as §1, §2, §3, §4, §5

[3] = biological target: T3, dopamine transporter (DAT) (Homo sapiens, UniProt Q01959); experiment: Dopamine reuptake inhibition, [3H]-DA, HEK-293 cells transfected with dopamine transporter cDNA; settings: for Triple reuptake inhibition (Ratio %) DAT: compound 1 μM, 20-30 nM [3H]-DA, relative to control without compound = 100%, lower value = more inhibition; for IC50: concentration at which Ratio % is 50%, 6 concentrations 1 nM to 1 μM, read-out: Triple reuptake inhibition (IC50, μM) DAT
T3 construct: expressed in transfected cells; host or cells: HEK-293
T3 sequence (Q01959 whole entry, species assumed): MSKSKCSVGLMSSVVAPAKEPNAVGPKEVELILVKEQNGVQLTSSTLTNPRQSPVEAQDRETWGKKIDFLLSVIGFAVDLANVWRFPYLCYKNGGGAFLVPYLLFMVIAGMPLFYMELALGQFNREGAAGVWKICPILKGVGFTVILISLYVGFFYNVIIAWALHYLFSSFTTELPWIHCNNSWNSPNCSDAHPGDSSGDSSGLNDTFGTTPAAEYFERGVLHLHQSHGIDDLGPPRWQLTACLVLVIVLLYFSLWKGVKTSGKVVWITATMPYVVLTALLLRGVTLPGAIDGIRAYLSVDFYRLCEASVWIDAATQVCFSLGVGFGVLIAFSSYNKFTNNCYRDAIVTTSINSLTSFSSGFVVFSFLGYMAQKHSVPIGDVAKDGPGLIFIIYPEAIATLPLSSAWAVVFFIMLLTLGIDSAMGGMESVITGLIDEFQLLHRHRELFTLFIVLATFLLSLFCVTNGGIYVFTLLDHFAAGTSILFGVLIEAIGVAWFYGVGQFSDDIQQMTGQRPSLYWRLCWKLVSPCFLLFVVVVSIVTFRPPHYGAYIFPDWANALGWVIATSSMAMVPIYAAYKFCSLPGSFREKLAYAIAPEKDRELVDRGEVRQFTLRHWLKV
Method: as §1, §2, §4, §5

[4] = compound 1 μM, [3H]-5-HT, relative to control without compound = 100%, lower value = more inhibition

O=S(=O)(NCCN1CCC(Cc2ccccc2)CC1)c1ccc(O)cc1 [Example 1, N-(2-(4-benzylpiperidin-1-yl)ethyl)-4-hydroxybenzenesulfonamide]
Triple reuptake inhibition (Ratio %) SERT [1]: 84.98%
Triple reuptake inhibition (Ratio %) NET [2]: 77.88%
Triple reuptake inhibition (Ratio %) DAT [3]: 65.88%

O=S(=O)(NCCN1CCC(Cc2ccccc2)CC1)c1ccc(F)cc1 [Example 2, N-(2-(4-benzylpiperidin-1-yl)ethyl)-4-fluorobenzenesulfonamide]
Triple reuptake inhibition (Ratio %) SERT [1, 4]: 100.21%
Triple reuptake inhibition (Ratio %) NET [2]: 61.32%
Triple reuptake inhibition (Ratio %) DAT [3]: 73.55%

O=S(=O)(NCCN1CCC(Cc2ccccc2)CC1)c1ccc(Oc2ccccc2)cc1 [Example 3, N-(2-(4-benzylpiperidin-1-yl)ethyl)-4-phenoxybenzenesulfonamide]
Triple reuptake inhibition (Ratio %) SERT [1, 4]: 62.10%
Triple reuptake inhibition (Ratio %) NET [2]: 56.36%
Triple reuptake inhibition (Ratio %) DAT [3]: 50.09%

CCCCOc1ccc(S(=O)(=O)NCCN2CCC(Cc3ccc(Cl)c(Cl)c3)CC2)cc1 [Example 4, 4-butoxy-N-(2-(4-(3,4-dichlorobenzyl)piperidin-1-yl)ethyl)benzenesulfonamide]
Triple reuptake inhibition (Ratio %) SERT [1, 4]: 76.57%
Triple reuptake inhibition (Ratio %) NET [2]: 80.47%
Triple reuptake inhibition (Ratio %) DAT [3]: 88.71%

CCCCOc1ccc(S(=O)(=O)N2CCC(c3c[nH]c4ccccc34)CC2)cc1 [Example 5, 3-(1-((4-butoxyphenyl)sulfonyl)piperidin-4-yl)-1H-indole]
Triple reuptake inhibition (Ratio %) SERT [1, 4]: 106.55%
Triple reuptake inhibition (Ratio %) NET [2]: 94.03%
Triple reuptake inhibition (Ratio %) DAT [3]: 100.55%

CCCCOc1ccc(S(=O)(=O)NCCN2CCC(c3c[nH]c4ccccc34)CC2)cc1 [Example 6]
Triple reuptake inhibition (Ratio %) SERT [1, 4]: 29.04%
IC50 [1]: 0.457 µM
Triple reuptake inhibition (Ratio %) NET [2]: 81.97%
Triple reuptake inhibition (Ratio %) DAT [3]: 54.56%
IC50 [3]: 1.99 µM

CCCCOc1ccc(S(=O)(=O)NCCN2CCC(c3c[nH]c4ccc(C)cc34)CC2)cc1 [Example 7, 4-butoxy-N-(2-(4-(5-methyl-1H-indol-3-yl)piperidin-1-yl)ethyl)benzenesulfonamide]
Triple reuptake inhibition (Ratio %) SERT [1, 4]: 93.29%
Triple reuptake inhibition (Ratio %) NET [2]: 88.38%
Triple reuptake inhibition (Ratio %) DAT [3]: 99.63%

CCCCOc1ccc(S(=O)(=O)NCCN2CCC(c3c[nH]c4ccc(OC)cc34)CC2)cc1 [Example 8, 4-butoxy-N-(2-(4-(5-methoxy-1H-indol-3-yl)piperidin-1-yl)ethyl)benzenesulfonamide]
Triple reuptake inhibition (Ratio %) SERT [1, 4]: 98.57%
Triple reuptake inhibition (Ratio %) NET [2]: 79.30%
Triple reuptake inhibition (Ratio %) DAT [3]: 90.67%

CCCCOc1ccc(S(=O)(=O)N2CCC(CCc3ccccc3)CC2)cc1 [Example 9, 1-((4-butoxyphenyl)sulfonyl)-4-phenethylpiperidin]
Triple reuptake inhibition (Ratio %) SERT [1, 4]: 101.11%
Triple reuptake inhibition (Ratio %) NET [2]: 96.32%
Triple reuptake inhibition (Ratio %) DAT [3]: 109.25%

CCCCOc1ccc(S(=O)(=O)NCCCN2CCC(Cc3ccccc3)CC2)cc1 [Example 10, N-(3-(4-benzylpiperidin-1-yl)propyl)-4-butoxybenzenesulfonamide]
Triple reuptake inhibition (Ratio %) SERT [1, 4]: 24.45%
IC50 [1]: 0.483 µM
Triple reuptake inhibition (Ratio %) NET [2]: 13.02%
IC50 [2]: 0.168 µM
Triple reuptake inhibition (Ratio %) DAT [3]: 41.80%
IC50 [3]: 0.612 µM

CCCCOc1ccc(S(=O)(=O)NCCCN2CCC(c3c[nH]c4ccccc34)CC2)cc1 [Example 11, N-(3-(4-(1H-indol-3-yl)piperidin-1-yl)propyl)-4-butoxybenzenesulfonamide]
Triple reuptake inhibition (Ratio %) SERT [1, 4]: 18.04%
Triple reuptake inhibition (Ratio %) NET [2]: 73.79%
Triple reuptake inhibition (Ratio %) DAT [3]: 73.16%

O=S(=O)(NCCCN1CCC(Cc2ccccc2)CC1)c1ccc(Oc2ccccc2)cc1 [Example 13, N-(3-(4-benzylpiperidin-1-yl)propyl)-4-phenoxybenzenesulfonamide]
Triple reuptake inhibition (Ratio %) SERT [1, 4]: 41.46%
IC50 [1]: 1.08 µM
Triple reuptake inhibition (Ratio %) NET [2]: 11.04%
IC50 [2]: 0.112 µM
Triple reuptake inhibition (Ratio %) DAT [3]: 25.55%
IC50 [3]: 0.872 µM

COc1ccc(S(=O)(=O)NCCCN2CCC(Cc3ccccc3)CC2)cc1 [Example 14, N-(3-(4-benzylpiperidin-1-yl)propyl)-4-methoxybenzenesulfonamide]
Triple reuptake inhibition (Ratio %) SERT [1, 4]: 55.67%
IC50 [1]: 1.75 µM
Triple reuptake inhibition (Ratio %) NET [2]: 22.30%
IC50 [2]: 0.173 µM
Triple reuptake inhibition (Ratio %) DAT [3]: 39.90%
IC50 [3]: 1.26 µM

CCCCNc1ccc(S(=O)(=O)NCCCN2CCC(Cc3ccccc3)CC2)cc1 [Example 16, N-(3-(4-benzylpiperidin-1-yl)propyl)-4-(butylamino)benzenesulfonamide]
Triple reuptake inhibition (Ratio %) SERT [1, 4]: 74.25%
Triple reuptake inhibition (Ratio %) NET [2]: 53.45%
Triple reuptake inhibition (Ratio %) DAT [3]: 93.59%

O=C(CCN1CCCCC1)Nc1ccc(S(=O)(=O)NCCCN2CCC(Cc3ccccc3)CC2)cc1 [Example 17, N-(4-(N-(3-(4-benzylpiperidin-1-yl)propyl)sulfamoyl)phenyl)-3-(piperidin-1-yl)propaneamide]
Triple reuptake inhibition (Ratio %) SERT [1, 4]: 9.28%
IC50 [1]: 0.057 µM
Triple reuptake inhibition (Ratio %) NET [2]: 58.66%
IC50 [2]: 1.56 µM
Triple reuptake inhibition (Ratio %) DAT [3]: 40.96%
IC50 [3]: 5.17 µM

CN(C)CCC(=O)Nc1ccc(S(=O)(=O)NCCCN2CCC(Cc3ccccc3)CC2)cc1 [Example 18, N-(4-(N-(3-(4-benzylpiperidin-1-yl)propyl)sulfamoyl)phenyl)-3-(dimethylamino)propaneamide]
Triple reuptake inhibition (Ratio %) NET [2]: 66.54%
Triple reuptake inhibition (Ratio %) DAT [3]: 65.67%

CCCCOc1ccc(S(=O)(=O)NCCCN2CCC(Cc3ccc(Cl)c(Cl)c3)CC2)cc1 [Example 20, 4-butoxy-N-(3-(4-(3,4-dichlorobenzyl)piperidin-1-yl)propyl)benzenesulfonamide]
Triple reuptake inhibition (Ratio %) SERT [1, 4]: 40.46%
IC50 [1]: 0.504 µM
Triple reuptake inhibition (Ratio %) NET [2]: 30.29%
IC50 [2]: 0.221 µM
Triple reuptake inhibition (Ratio %) DAT [3]: 56.29%
IC50 [3]: 2.16 µM

CCCCOc1ccc(S(=O)(=O)NCCCN2CCC(Cc3ccc(F)c(F)c3)CC2)cc1 [Example 21, 4-butoxy-N-(3-(4-(3,4-difluorobenzyl)piperidinyl)propyl)benzenesulfonamide]
Triple reuptake inhibition (Ratio %) SERT [1, 4]: 38.74%
IC50 [1]: 0.455 µM
Triple reuptake inhibition (Ratio %) NET [2]: 26.67%
IC50 [2]: 0.946 µM
Triple reuptake inhibition (Ratio %) DAT [3]: 57.35%
IC50 [3]: 4.72 µM

CCCCOc1ccc(S(=O)(=O)NCCCN2CCC(c3ccc(Cl)c(Cl)c3)CC2)cc1 [Example 22, 4-butoxy-N-(3-(4-(3,4-dichlorophenyl)piperidinyl)propyl)benzenesulfonamide]
Triple reuptake inhibition (Ratio %) SERT [1, 4]: 38.07%
IC50 [1]: 0.609 µM
Triple reuptake inhibition (Ratio %) NET [2]: 36.85%
IC50 [2]: 0.55 µM
Triple reuptake inhibition (Ratio %) DAT [3]: 31.02%
IC50 [3]: 1.51 µM

CCCCOc1ccc(S(=O)(=O)NCCCN2CCN(c3ccc(Cl)c(Cl)c3)CC2)cc1 [Example 23, 4-butoxy-N-(3-(4-(3,4-dichlorophenyl)piperazin-1-yl)propyl)benzenesulfonamide]
Triple reuptake inhibition (Ratio %) SERT [1, 4]: 41.32%
Triple reuptake inhibition (Ratio %) NET [2]: 83.63%
Triple reuptake inhibition (Ratio %) DAT [3]: 99.56%
